“And” between values parts separate entries of the source, which are not always exact repeats. Equal values may be shown once.
Assays:
ZAP-70 = target: T1, ZAP-70 (Homo sapiens, UniProt P43403); experiment: ZAP-70 kinobeads assay; format: binding; conditions: cell lysate, dot blot with ZAP-70 antibody
T1 construct: endogenous in cells
T1 sequence (P43403 1-619): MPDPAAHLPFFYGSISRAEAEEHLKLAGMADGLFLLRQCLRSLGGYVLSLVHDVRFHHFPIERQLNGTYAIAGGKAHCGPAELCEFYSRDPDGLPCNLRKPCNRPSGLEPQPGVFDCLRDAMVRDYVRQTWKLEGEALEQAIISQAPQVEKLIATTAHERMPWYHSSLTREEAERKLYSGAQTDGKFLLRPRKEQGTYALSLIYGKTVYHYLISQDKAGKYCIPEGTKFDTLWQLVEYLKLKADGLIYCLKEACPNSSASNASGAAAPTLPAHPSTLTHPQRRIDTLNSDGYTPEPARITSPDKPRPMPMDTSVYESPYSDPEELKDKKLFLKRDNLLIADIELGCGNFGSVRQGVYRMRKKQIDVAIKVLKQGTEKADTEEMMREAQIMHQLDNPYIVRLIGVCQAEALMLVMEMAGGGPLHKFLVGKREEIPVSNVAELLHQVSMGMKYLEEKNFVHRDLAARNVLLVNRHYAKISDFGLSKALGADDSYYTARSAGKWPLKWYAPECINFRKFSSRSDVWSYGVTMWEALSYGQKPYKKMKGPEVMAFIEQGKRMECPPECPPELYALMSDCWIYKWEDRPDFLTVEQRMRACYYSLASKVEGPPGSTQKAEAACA
Experimental: The compounds of the present invention as described in the previous examples were tested in the ZAP-70 kinobeads assay as described (EP-A 1862802 and WO-A 2007/137867). Briefly, test compounds (at various concentrations) and the affinity matrix with the immobilized aminopyrido-pyrimidine ligand 24 are added to cell lysate aliquots and allowed to bind to the proteins in the lysate sample. After the incubation time the beads with captured proteins are separated from the lysate. Bound proteins are then eluted and the presence ZAP-70 is detected and quantified using a specific antibody in a dot blot procedure and the Odyssey infrared detection system.

JAK3 = target: T2, JAK3 (Homo sapiens, UniProt P52333); experiment: JAK3 kinobeads assay; format: binding; conditions: cell lysate, dot blot with JAK3 specific antibody
T2 construct: endogenous in cells
T2 sequence (P52333 1-1124): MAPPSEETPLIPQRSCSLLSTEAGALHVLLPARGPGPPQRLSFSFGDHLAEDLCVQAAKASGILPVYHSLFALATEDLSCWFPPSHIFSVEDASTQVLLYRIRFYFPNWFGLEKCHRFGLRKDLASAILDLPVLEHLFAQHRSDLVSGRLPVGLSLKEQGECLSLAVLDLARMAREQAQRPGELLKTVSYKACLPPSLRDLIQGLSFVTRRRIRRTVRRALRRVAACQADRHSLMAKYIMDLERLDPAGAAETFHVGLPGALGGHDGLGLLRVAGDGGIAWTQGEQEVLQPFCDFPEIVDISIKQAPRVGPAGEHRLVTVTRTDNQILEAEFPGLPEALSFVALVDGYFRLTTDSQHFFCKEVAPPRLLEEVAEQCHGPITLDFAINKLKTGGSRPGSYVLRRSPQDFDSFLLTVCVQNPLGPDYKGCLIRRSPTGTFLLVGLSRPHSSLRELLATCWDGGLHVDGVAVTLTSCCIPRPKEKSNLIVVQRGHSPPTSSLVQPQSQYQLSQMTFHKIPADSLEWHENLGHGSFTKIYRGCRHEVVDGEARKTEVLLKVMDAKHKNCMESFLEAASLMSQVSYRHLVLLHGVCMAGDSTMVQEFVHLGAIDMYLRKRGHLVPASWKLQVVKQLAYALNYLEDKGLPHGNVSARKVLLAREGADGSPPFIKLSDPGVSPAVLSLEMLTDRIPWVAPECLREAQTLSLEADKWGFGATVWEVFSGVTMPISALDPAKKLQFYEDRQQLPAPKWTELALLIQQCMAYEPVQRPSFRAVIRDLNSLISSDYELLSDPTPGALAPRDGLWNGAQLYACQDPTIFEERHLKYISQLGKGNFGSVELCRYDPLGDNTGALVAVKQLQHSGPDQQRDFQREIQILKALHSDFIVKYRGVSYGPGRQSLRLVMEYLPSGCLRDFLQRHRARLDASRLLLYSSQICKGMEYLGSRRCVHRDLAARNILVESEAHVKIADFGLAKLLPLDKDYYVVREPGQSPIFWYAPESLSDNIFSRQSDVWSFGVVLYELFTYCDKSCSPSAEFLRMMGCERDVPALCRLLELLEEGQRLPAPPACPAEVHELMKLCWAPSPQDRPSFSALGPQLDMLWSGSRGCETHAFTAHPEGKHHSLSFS
Outline: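 In this competition pulldown, test compounds at various concentrations were incubated in cell lysate together with beads carrying an immobilized aminopyrido-pyrimidine ligand. Bead-bound proteins were eluted, and JAK3 was quantified by dot blot with a JAK3-specific antibody and infrared detection.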

rheumatoid arthritis = conditions: animal model of rheumatoid arthritis (Pine et al., 2007); cited from earlier work

Structure (SMILES)	IC50 (ZAP-70)	IC50 (JAK3)	inflammation and bone erosion (rheumatoid arthritis)
COc1ccc(Nc2nc(Nc3cc(C)nn3C)ncc2Cl)c(NS(C)(=O)=O)c1 [Example 8, N-(2-(5-chloro-2-(1,3-dimethyl-1H-pyrazol-5-ylamino)pyrimidin-4-ylamino)-5-methoxyphenyl)methanesulfonamide]	≤ 100 nM	≤ 100 nM	–
Cn1ccc(Nc2ncc(F)c(Nc3ccccc3NS(C)(=O)=O)n2)n1 [Example 1, N-(2-(5-fluoro-2-(1-methyl-1H-pyrazol-3-ylamino)pyrimidin-4-ylamino)phenyl)methanesulfonamide]	1000 to 10000 nM	100 to 1000 nM	–
COc1ccc(Nc2nc(Nc3nonc3C)ncc2Cl)c(NS(C)(=O)=O)c1 [Example 31, N-(2-(5-chloro-2-(4-methyl-1,2,5-oxadiazol-3-ylamino)pyrimidin-4-ylamino)-5-methoxyphenyl)methanesulfonamide]	1000 to 10000 nM	1000 to 10000 nM	–
Cn1ccc(Nc2ncc(Br)c(Nc3ccccc3NS(C)(=O)=O)n2)n1 [Example 43, N-(2-((5-bromo-2-((1-methyl-1H-pyrazol-3-yl)amino)pyrimidin-4-yl)amino)phenyl)methanesulfonamide]	100 to 1000 nM	≤ 100 nM	–
CCn1ncc(Nc2ncc(Cl)c(Nc3ccc(OC)cc3NS(C)(=O)=O)n2)c1C [Example 77, N-(2-((5-chloro-2-((1-ethyl-5-methyl-1H-pyrazol-4-yl)amino)pyrimidin-4-yl)amino)-5-methoxyphenyl)methanesulfonamide]	≤ 100 nM	100 to 1000 nM	–
Cn1cc(Nc2ncc(F)c(Nc3ccccc3NS(C)(=O)=O)n2)cn1 [Example 22, N-(2-(5-fluoro-2-(1-methyl-1H-pyrazol-4-ylamino)pyrimidin-4-ylamino)phenyl)methanesulfonamide]	100 to 1000 nM	≤ 100 nM	–
COc1ccc(Nc2nc(Nc3c[nH]nc3C)ncc2Cl)c(NS(C)(=O)=O)c1 [Example 2, N-(2-(5-chloro-2-(3-methyl-1H-pyrazol-4-ylamino)pyrimidin-4-ylamino)-5-methoxyphenyl)methanesulfonamide]	≤ 100 nM	≤ 100 nM	–
COc1ccc(Nc2nc(Nc3cc(C)nn3CCO)ncc2Cl)c(NS(C)(=O)=O)c1 [Example 94, N-(2-((5-chloro-2-((1-(2-hydroxyethyl)-3-methyl-1H-pyrazol-5-yl)amino)pyrimidin-4-yl)amino)-5-methoxyphenyl)methanesulfonamide]	100 to 1000 nM	1000 to 10000 nM	–
CCn1cc(Nc2ncc(Cl)c(Nc3ccc(OC)cc3NS(C)(=O)=O)n2)c(C)n1 [Example 28, N-(2-(5-chloro-2-(1-ethyl-3-methyl-1H-pyrazol-4-ylamino)pyrimidin-4-ylamino)-5-methoxyphenyl)methanesulfonamide]	100 to 1000 nM	≤ 100 nM	–
Cc1nn(C)cc1Nc1ncc(F)c(Nc2ccccc2NS(C)(=O)=O)n1 [Example 30, N-(2-(2-(1,3-dimethyl-1H-pyrazol-4-ylamino)-5-fluoropyrimidin-4-ylamino)phenyl)methanesulfonamide]	100 to 1000 nM	100 to 1000 nM	–
CS(=O)(=O)Nc1ccccc1Nc1nc(Nc2cnoc2)ncc1Cl [Example 44, N-(2-((5-chloro-2-(isoxazol-4-ylamino)pyrimidin-4-yl)amino)phenyl)methanesulfonamide]	1000 to 10000 nM	100 to 1000 nM	–
COc1cc(Nc2ncc(F)c(Nc3ccc4c(n3)NC(=O)C(C)(C)O4)n2)cc(OC)c1OC [Example R406]	–	–	suppresses inflammation and bone erosion
COc1ccc(Nc2nc(Nc3ccon3)ncc2Cl)c(NS(C)(=O)=O)c1 [Example 3, N-(2-(5-chloro-2-(isoxazol-3-ylamino)pyrimidin-4-ylamino)-5-methoxyphenyl)methanesulfonamide]	100 to 1000 nM	≤ 100 nM	–
CC(C)n1ccc(Nc2ncc(Cl)c(Nc3ccccc3NS(C)(=O)=O)n2)n1 [Example 40, N-(2-(5-chloro-2-(1-isopropyl-1H-pyrazol-3-ylamino)pyrimidin-4-ylamino)phenyl)methanesulfonamide]	100 to 1000 nM	≤ 100 nM	–
CS(=O)(=O)Nc1ccccc1Nc1nc(Nc2cn[nH]c2)ncc1F [Example 23, N-(2-(2-(1H-pyrazol-4-ylamino)-5-fluoropyrimidin-4-ylamino)phenyl)methanesulfonamide]	100 to 1000 nM	≤ 100 nM	–
COc1ccc(Nc2nc(Nc3cnn(C)c3)ncc2Cl)c(NS(C)(=O)=O)c1 [Example 6, N-(2-(5-chloro-2-(1-methyl-1H-pyrazol-4-ylamino)pyrimidin-4-ylamino)-5-methoxyphenyl)methanesulfonamide]	≤ 100 nM	≤ 100 nM	–
COc1ccc(Nc2nc(Nc3cn(C)nc3C)ncc2Cl)c(NS(C)(=O)=O)c1 [Example 18, N-(2-(5-chloro-2-(1,3-dimethyl-1H-pyrazol-4-ylamino)pyrimidin-4-ylamino)-5-methoxyphenyl)methanesulfonamide]	≤ 100 nM	≤ 100 nM	–
COc1ccc(Nc2nc(Nc3ccon3)ncc2F)c(NS(C)(=O)=O)c1 [Example 36, N-(2-(5-fluoro-2-(isoxazol-3-ylamino)pyrimidin-4-ylamino)-5-methoxyphenyl)methanesulfonamide]	1000 to 10000 nM	100 to 1000 nM	–
COc1ccc(Nc2nc(Nc3cnn(C)c3C)ncc2Cl)c(NS(C)(=O)=O)c1 [Example 67, N-(2-((5-chloro-2-((1,5-dimethyl-1H-pyrazol-4-yl)amino)pyrimidin-4-yl)amino)-5-methoxyphenyl)methanesulfonamide]	≤ 100 nM	100 to 1000 nM	–
Cn1cc(Nc2ncc(Cl)c(Nc3ccccc3NS(C)(=O)=O)n2)cn1 [Example 20, N-(2-(5-chloro-2-(1-methyl-1H-pyrazol-4-ylamino)pyrimidin-4-ylamino)phenyl)methanesulfonamide]	100 to 1000 nM	≤ 100 nM	–
CCn1cc(Nc2ncc(F)c(Nc3ccc(OC)cc3NS(C)(=O)=O)n2)c(C)n1 [Example 34, N-(2-(2-(1-ethyl-3-methyl-1H-pyrazol-4-ylamino)-5-fluoropyrimidin-4-ylamino)-5-methoxyphenyl)methanesulfonamide]	100 to 1000 nM	100 to 1000 nM	–
CCn1nc(C)cc1Nc1ncc(Cl)c(Nc2ccc(OC)cc2NS(C)(=O)=O)n1 [Example 12, N-(2-(5-chloro-2-(1-ethyl-3-methyl-1H-pyrazol-5-ylamino)pyrimidin-4-ylamino)-5-methoxyphenyl)methanesulfonamide]	≤ 100 nM	100 to 1000 nM	–
COc1ccc(Nc2nc(Nc3ccn(C)n3)ncc2Cl)c(NS(C)(=O)=O)c1 [Example 4, N-(2-(5-chloro-2-(1-methyl-1H-pyrazol-3-ylamino)pyrimidin-4-ylamino)-5-methoxyphenyl)methanesulfonamide]	100 to 1000 nM	100 to 1000 nM and ≤ 100 nM	–

From patent US20120172384A1, “HETEROCYCLYLAMINOPYRIMIDINES AS KINASE INHIBITORS” (priority 2009, published 2012)
